Measurements: PubChem BioAssay (NCI)
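Where inhibition never reached the appropriate level, the endpoint shown equals the highest concentration tested. Otherwise, values were interpolated linearly from a five-concentration, 48-hour dose response in 96-well plates. TGI: total growth inhibition.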

Tests used:
Test in all cases: DTP human tumour cell line panel, 48 h
[1] = tested on: T-47D breast
[2] = tested on: RXF 393 renal
[3] = tested on: COLO 205 colon
[4] = tested on: RPMI-8226 leukemia
[5] = tested on: HOP-62 NSCLC
[6] = tested on: MALME-3M melanoma
[7] = tested on: DU-145 prostate
[8] = tested on: LOX IMVI melanoma
[9] = tested on: SW-620 colon
[10] = tested on: SR leukemia
[11] = tested on: PC-3 prostate
[12] = tested on: MCF7 breast
[13] = tested on: SNB-75 CNS
[14] = tested on: HCC-2998 colon
[15] = tested on: SK-OV-3 ovarian
[16] = tested on: 786-0 renal
[17] = tested on: EKVX NSCLC
[18] = tested on: M14 melanoma
[19] = tested on: UACC-62 melanoma
[20] = tested on: SF-268 CNS
[21] = tested on: SK-MEL-28 melanoma
[22] = tested on: SK-MEL-5 melanoma
[23] = tested on: UACC-257 melanoma
[24] = tested on: MOLT-4 leukemia
[25] = tested on: TK-10 renal
[26] = tested on: MDA-MB-231 breast
[27] = tested on: K-562 leukemia
[28] = tested on: SN12C renal
[29] = tested on: CAKI-1 renal
[30] = tested on: HT29 colon
[31] = tested on: A549 NSCLC
[32] = tested on: OVCAR-8 ovarian
[33] = tested on: IGROV1 ovarian
[34] = tested on: MDA-N
[35] = tested on: SF-295 CNS
[36] = tested on: NCI-H23 lung
[37] = tested on: CCRF-CEM leukemia
[38] = tested on: HCT-15 colon
[39] = tested on: KM12 colon
[40] = tested on: SK-MEL-2 melanoma
[41] = tested on: HL-60(TB) leukemia
[42] = tested on: SF-539 CNS
[43] = tested on: NCI/ADR-RES ovarian
[44] = tested on: UO-31 renal
[45] = tested on: SNB-19 CNS
[46] = tested on: MDA-MB-435
[47] = tested on: OVCAR-3 ovarian
[48] = tested on: A498 renal
[49] = tested on: HOP-92 NSCLC
[50] = tested on: U251 CNS
[51] = tested on: NCI-H226 lung
[52] = tested on: OVCAR-4 ovarian
[53] = tested on: HS 578T breast
[54] = tested on: NCI-H522 lung
[55] = tested on: NCI-H460 lung
[56] = tested on: OVCAR-5 ovarian
[57] = tested on: ACHN renal

Measured: TGI

Cc1c(CCCl)c(N=P(c2ccccc2)(c2ccccc2)c2ccccc2)n2c(nc3ccccc32)c1C#N
not listed: [40] | [41] | [42] | [43] | [44] | [45] | [46] | [47] | [48] | [49] | [50] | [51] | [52] | [53] | [54] | [55] | [56] | [57]
> 10 µM: all other assays above

Cn1c2c(c3ccccc31)CCN1C(=O)CCC21 (centres undefined)
not listed: [19] | [31]
> 10 µM: all other assays above
